What all share (format): in vivo
Experiment [1] has as its system ryegrass, Italian (Italian ryegrass, Lolium multiflorum). Nature of the experiment: Test A preemergence. The following applies: Lolium multiflorum, pre-emergence, 240 h; for pest or weed control at 125 g/ha: 125 g ai/ha, preemergence, 0 to 100 scale where 0 is no effect and 100 is complete control; for pest or weed control at 31 g/ha: 31 g ai/ha, 0 to 100 scale (0 no effect, 100 complete control). The method in brief: (§1)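 Compounds were formulated in a non-phytotoxic solvent mixture with surfactant and applied as a preemergence directed soil spray after seeding, or sprayed postemergence over plants 2 to 10 cm tall at the one- to two-leaf stage. Evaluation after about 10 d compared treated with untreated controls, using a scale from 0 (no effect) to 100 (complete control).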

Experiment [2] deals with ducksalad (Heteranthera limosa). The experiment in a line: Test B flooded paddy test. The following applies: Heteranthera limosa, Flood, 250 g ai/ha; scale of 0 to 100 where 0 is no effect and 100 is complete control; read-out: Ducksalad plant response rating. The method in brief: (§2)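 Flooding to 3 cm over soil accompanied treatment, which consisted of adding compound to the standing water around 2-leaf plants; depth was then maintained. Visual assessment versus controls followed at 13 to 15 d (scale 0–100, 0 meaning no effect).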

For experiment [3], the system named is rice (Oryra sativa). Nature of the experiment: Test B flooded paddy test. As to conditions: Oryza sativa, Flood, 250 g ai/ha; scale of 0 to 100 where 0 is no effect and 100 is complete control; read-out: Rice plant response rating. The method in brief: as §2
In experiment [4] the test system is sedge, umbrella (small-flower umbrella sedge, Cyperus difformis). The experiment in a line: Test B flooded paddy test. As to conditions: Cyperus difformis, Flood, 250 g ai/ha; scale of 0 to 100 where 0 is no effect and 100 is complete control; read-out: Sedge, Umbrella plant response rating. In a few lines:
as §2

In experiment [5] the test system is barnyardgrass (Echinochloa crus-galli). Nature of the experiment: Test B flooded paddy test. The following applies: Echinochloa crus-galli, Flood, 250 g ai/ha; scale of 0 to 100 where 0 is no effect and 100 is complete control; read-out: Barnyardgrass plant response rating. In a few lines: as §2
Experiment [6] has as its system wheat (Triticum aestivum). The experiment in a line: Test A postemergence. As to conditions: Triticum aestivum, post-emergence, 240 h; for plant injury at 125 g/ha: 125 g ai/ha, postemergence, visual injury rating after approximately 10 d, read-out: Wheat plant response rating (0 to 100 scale, 0 no effect, 100 complete control); for plant injury at 31 g/ha: Postemergence, 31 g ai/ha, visual injury after approx. 10 d, 0 to 100 scale, 0 no effect, 100 complete control, read-out: Plant response rating, Wheat. In a few lines:
as §1

The subject of experiment [7] is pigweed (Amaranthus retroflexus). Nature of the experiment: Test A postemergence. As to conditions: Amaranthus retroflexus, post-emergence, 240 h; for pest or weed control at 125 g/ha: 125 g ai/ha, postemergence, visual injury rating after approximately 10 d, read-out: Pigweed plant response rating (0 to 100 scale, 0 no effect, 100 complete control); for pest or weed control at 31 g/ha: Postemergence, 31 g ai/ha, visual injury after approx. 10 d, 0 to 100 scale, 0 no effect, 100 complete control, read-out: Plant response rating, Pigweed. In a few lines: as §1

The subject of experiment [8] is ragweed (common ragweed, Ambrosia elatior). Nature of the experiment: Test A postemergence. The following applies: Ambrosia artemisiifolia, post-emergence, 240 h; for pest or weed control at 125 g/ha: 125 g ai/ha, postemergence, visual injury rating after approximately 10 d, read-out: Ragweed plant response rating (0 to 100 scale, 0 no effect, 100 complete control); for pest or weed control at 31 g/ha: Postemergence, 31 g ai/ha, visual injury after approx. 10 d, 0 to 100 scale, 0 no effect, 100 complete control, read-out: Plant response rating, Ragweed. The method in brief:
as §1

The test system of experiment [9] is giant foxtail (Setaria faberii). Nature of the experiment: Test A postemergence. As to conditions: Setaria faberi, post-emergence, 240 h; for pest or weed control at 125 g/ha: 125 g ai/ha, postemergence, visual injury rating after approximately 10 d, read-out: Foxtail, Giant plant response rating (0 to 100 scale, 0 no effect, 100 complete control); for pest or weed control at 31 g/ha: Postemergence, 31 g ai/ha, visual injury after approx. 10 d, 0 to 100 scale, 0 no effect, 100 complete control, read-out: Plant response rating, Foxtail, Giant. In a few lines: as §1

For experiment [10], the system named is blackgrass (Alopecurus myosuroides). The experiment in a line: Test A postemergence. As to conditions: Alopecurus myosuroides, post-emergence, 240 h; for pest or weed control at 125 g/ha: 125 g ai/ha, postemergence, visual injury rating after approximately 10 d, read-out: Blackgrass plant response rating (0 to 100 scale, 0 no effect, 100 complete control); for pest or weed control at 31 g/ha: Postemergence, 31 g ai/ha, visual injury after approx. 10 d, 0 to 100 scale, 0 no effect, 100 complete control, read-out: Plant response rating, Blackgrass. The method in brief:
as §1

The subject of experiment [11] is barnyardgrass (Echinochloa crus-galli). The experiment in a line: Test A postemergence. As to conditions: Echinochloa crus-galli, post-emergence, 240 h; for pest or weed control at 125 g/ha: 125 g ai/ha, postemergence, visual injury rating after approximately 10 d, read-out: Barnyardgrass plant response rating (0 to 100 scale, 0 no effect, 100 complete control); for pest or weed control at 31 g/ha: Postemergence, 31 g ai/ha, visual injury after approx. 10 d, 0 to 100 scale, 0 no effect, 100 complete control, read-out: Plant response rating, Barnyardgrass. The method in brief:
as §1

The subject of experiment [12] is Galium (catchweed bedstraw, Galium aparine). The experiment in a line: Test A postemergence. The following applies: Galium, post-emergence, 240 h; for pest or weed control at 125 g/ha: 125 g ai/ha, postemergence, visual injury rating after approximately 10 d, read-out: Galium plant response rating (0 to 100 scale, 0 no effect, 100 complete control); for pest or weed control at 31 g/ha: Postemergence, 31 g ai/ha, visual injury after approx. 10 d, 0 to 100 scale, 0 no effect, 100 complete control, read-out: Plant response rating, Galium. The method in brief:
as §1

Experiment [13] has as its system corn (Zea mays). Nature of the experiment: Test A postemergence. As to conditions: Zea mays, post-emergence, 240 h; for plant injury at 125 g/ha: 125 g ai/ha, postemergence, visual injury rating after approximately 10 d, read-out: Corn plant response rating (0 to 100 scale, 0 no effect, 100 complete control); for Corn plant response rating (crop injury, 0 = no effect, 100 = complete kill) at 31 g/ha: Postemergence, 31 g ai/ha, visual injury after approx. 10 d, 0 to 100 scale, 100 complete control. In a few lines:
as §1

In experiment [14] the test system is ryegrass, Italian (Italian ryegrass, Lolium multiflorum). The experiment in a line: Test A postemergence. The following applies: Lolium multiflorum, post-emergence, 240 h; for pest or weed control at 125 g/ha: 125 g ai/ha, postemergence, visual injury rating after approximately 10 d, read-out: Ryegrass, Italian plant response rating (0 to 100 scale, 0 no effect, 100 complete control); for pest or weed control at 31 g/ha: Postemergence, 31 g ai/ha, visual injury after approx. 10 d, 0 to 100 scale, 0 no effect, 100 complete control, read-out: Plant response rating, Ryegrass, Italian. In a few lines:
as §1

Experiment [15] relates to Kochia (Kochia scoparia). The experiment in a line: Test A postemergence. The following applies: Bassia scoparia, post-emergence, 240 h; for pest or weed control at 125 g/ha: 125 g ai/ha, postemergence, visual injury rating after approximately 10 d, read-out: Kochia plant response rating (0 to 100 scale, 0 no effect, 100 complete control); for pest or weed control at 31 g/ha: Postemergence, 31 g ai/ha, visual injury after approx. 10 d, 0 to 100 scale, 0 no effect, 100 complete control, read-out: Plant response rating, Kochia. The method in brief: as §1

Where [16] appears, read: visual rating after approx. 10 d, read-out: Plant response rating, Ryegrass, Italian.
Setting [17] is: Preemergence, read-out: Plant response rating, Ryegrass, Italian.

As to `O=C(Nc1cccc(F)c1F)[C@H]1C(=O)N(O)CC[C@@H]1c1ccc(F)cc1` [Compound 805], the pest or weed control at 125 g/ha in experiment [1] (setting [16]), in experiment [7], in [8], in experiment [9], in experiment [10] and in [11] was 0% throughout. Besides, the pest or weed control at 125 g/ha in experiment [12], in experiment [14] and in experiment [15] was 0% in each case. Moreover, the pest or weed control at 31 g/ha in experiment [1] (setting [17]), in experiment [7], in [8], in [9], in experiment [10] and in experiment [11] was 0% in each case. Also, the pest or weed control at 31 g/ha in experiment [12], in experiment [14] and in [15] was 0% each time. In addition, the pest or weed control at 250 g/ha in experiment [2], in experiment [3], in experiment [4] and in experiment [5] was 0% each time. Moreover, the plant injury at 125 g/ha in [6] and in experiment [13] was 0% in each case. The plant injury at 31 g/ha in experiment [6] was found to be 0%. The same compound showed a Corn plant response rating (crop injury, 0 = no effect, 100 = complete kill) at 31 g/ha in [13] of 0%.

Consider `CSc1ccccc1NC(=O)[C@H]1C(=O)N(C)CC[C@@H]1c1ccc2c(c1)OC(F)(F)O2` [Compound 814], for which the pest or weed control at 125 g/ha in experiment [1] (setting [16]), in [7], in [8], in [9], in experiment [10] and in experiment [11] was 0% in each case. The pest or weed control at 125 g/ha in [12], in [14] and in [15] was 0% in each case. Further, the pest or weed control at 31 g/ha in experiment [1] (setting [17]), in experiment [7], in experiment [8], in experiment [9], in experiment [10] and in experiment [11] was 0% throughout. The pest or weed control at 31 g/ha in experiment [12], in experiment [14] and in experiment [15] was 0% each time. For the same compound, the pest or weed control at 250 g/ha in [2] came to 50%; in [3] it was 0%; in experiment [4], 60%; in [5], 0%. Besides, the plant injury at 125 g/ha in experiment [6] and in experiment [13] was 0% throughout. In addition, the plant injury at 31 g/ha in [6] was found to be 0%. Further, the Corn plant response rating (crop injury, 0 = no effect, 100 = complete kill) at 31 g/ha in experiment [13] stood at 0%.

For `CN1C[C@H](c2cc(F)c(C(F)(F)F)c(F)c2)[C@@H](C(=O)Nc2ccccc2F)C1=O` [Compound 899], the pest or weed control at 125 g/ha is 30% in experiment [1] (read-out: Ryegrass, Italian plant response rating); 0% in experiment [7]; 20% in [8]; 90% in experiment [9]; 40% in [10]; 80% in experiment [11]. For the same compound, the pest or weed control at 125 g/ha in [12] turned out to be 0%; in experiment [14], 30%; in [15], 0%. Also, the pest or weed control at 500 g/ha in [1] (500 g ai/ha, Preemergence, visual injury vs untreated controls after approximately 10 d, read-out: Ryegrass, Italian plant response rating (0 to 100 scale where 0 is no effect and 100 is complete control)) came to 20%. Besides, the pest or weed control at 250 g/ha in experiment [2] worked out at 10%; in experiment [3], 0%; in experiment [4], 0%; in [5] it was 55%. Moreover, the plant injury at 125 g/ha was 30% in experiment [6] and 40% in [13].

The record behind these values is patent publication US12077503B2, “Substituted cyclic amides and their use as herbicides” (FMC CORPORATION, priority 2015, dated 2024).
